Results taken from paper PMC2873862 (Journal of neuroimmunology, 2009).

What was measured:
Assay in all cases: radioligand displacement
Neurotensin NT1 = Neurotensin NT1 (Homo sapiens, UniProt P30989); assay type: binding
Dopamine D2L = Dopamine D2L (Homo sapiens, UniProt P14416); assay type: binding
Chemokine CCR5 = Chemokine CCR5 (Homo sapiens, UniProt P51681); assay type: binding
Estrogen ERβ = Estrogen ERβ (Homo sapiens, UniProt Q92731)
Histamine H1 = Histamine H1 (Homo sapiens, UniProt P35367); assay type: binding
Serotonin 5-HT1A = Serotonin 5-HT1A (Homo sapiens, UniProt P08908); assay type: binding
Chemokine CCR1 = Chemokine CCR1 (Homo sapiens, UniProt P32246); assay type: binding
Serotonin 5-HT1_5A = Serotonin 5-HT1_5A (Homo sapiens, UniProt P47898); assay type: binding
Leukotriene CysLT1 = Leukotriene CysLT1 (Homo sapiens, UniProt Q9Y271); assay type: binding
Endothelin ETA = Endothelin ETA (Homo sapiens, UniProt P25101); assay type: binding
Somatostatin sst1 = Somatostatin sst1 (Homo sapiens, UniProt P30872)
Adrenergic α1D = Adrenergic α1D (Homo sapiens, UniProt P25100); assay type: binding
Adrenergic β1 = Adrenergic β1 (Homo sapiens, UniProt P08588); assay type: binding
Opiate σ(OP1) = Opiate σ(OP1) (Homo sapiens, UniProt P41143); assay type: binding
Bradykinin B1 = Bradykinin B1 (Homo sapiens, UniProt P46663); assay type: binding; details: vs [3H]des Arg10 Kallidin; bound from single concentration […]
Muscarinic M1 = Muscarinic M1 (Homo sapiens, UniProt P11229); assay type: binding
Muscarinic M3 = Muscarinic M3 (Homo sapiens, UniProt P20309); assay type: binding
Dopamine D3 = Dopamine D3 (Homo sapiens, UniProt P35462); assay type: binding
Tachykinin NK1 = Tachykinin NK1 (Homo sapiens, UniProt P25103); assay type: binding
Angiotensin AT1 = Angiotensin AT1 (Homo sapiens, UniProt P30556); assay type: binding
Cannabinoid CB2 = Cannabinoid CB2 (Homo sapiens, UniProt P34972); assay type: binding
Neuropeptide Y1 = Neuropeptide Y1 (Homo sapiens, UniProt P25929); assay type: binding
Adenosine A1 = Adenosine A1 (Homo sapiens, UniProt P30542); assay type: binding

Measured: IC50

Sequence of Adrenergic α1D (P25100 whole entry): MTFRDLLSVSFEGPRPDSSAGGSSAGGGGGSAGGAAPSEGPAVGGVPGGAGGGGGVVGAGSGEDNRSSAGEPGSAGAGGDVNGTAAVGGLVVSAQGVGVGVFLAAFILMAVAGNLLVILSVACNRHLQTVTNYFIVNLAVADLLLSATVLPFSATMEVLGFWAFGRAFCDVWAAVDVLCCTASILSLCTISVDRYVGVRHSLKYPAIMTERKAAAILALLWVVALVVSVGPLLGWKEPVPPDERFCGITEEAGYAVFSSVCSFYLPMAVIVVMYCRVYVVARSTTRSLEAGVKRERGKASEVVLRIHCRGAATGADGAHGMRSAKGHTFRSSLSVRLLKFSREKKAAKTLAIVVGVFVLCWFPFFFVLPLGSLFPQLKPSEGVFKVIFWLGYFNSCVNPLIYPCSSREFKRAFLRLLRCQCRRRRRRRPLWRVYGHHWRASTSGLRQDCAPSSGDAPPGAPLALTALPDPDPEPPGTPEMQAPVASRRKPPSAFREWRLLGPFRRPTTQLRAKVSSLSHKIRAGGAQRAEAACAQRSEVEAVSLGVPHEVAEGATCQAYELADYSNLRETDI
Sequence of Chemokine CCR1 (P32246 whole entry): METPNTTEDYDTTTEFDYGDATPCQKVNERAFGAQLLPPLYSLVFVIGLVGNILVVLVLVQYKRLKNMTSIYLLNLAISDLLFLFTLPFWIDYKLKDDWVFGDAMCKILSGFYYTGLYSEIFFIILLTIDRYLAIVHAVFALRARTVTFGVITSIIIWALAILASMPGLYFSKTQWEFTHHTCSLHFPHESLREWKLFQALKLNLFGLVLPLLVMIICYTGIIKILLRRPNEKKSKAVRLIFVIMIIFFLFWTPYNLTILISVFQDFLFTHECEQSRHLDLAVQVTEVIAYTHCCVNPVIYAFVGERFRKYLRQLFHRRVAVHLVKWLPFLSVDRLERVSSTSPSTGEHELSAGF
Sequence of Leukotriene CysLT1 (Q9Y271 whole entry): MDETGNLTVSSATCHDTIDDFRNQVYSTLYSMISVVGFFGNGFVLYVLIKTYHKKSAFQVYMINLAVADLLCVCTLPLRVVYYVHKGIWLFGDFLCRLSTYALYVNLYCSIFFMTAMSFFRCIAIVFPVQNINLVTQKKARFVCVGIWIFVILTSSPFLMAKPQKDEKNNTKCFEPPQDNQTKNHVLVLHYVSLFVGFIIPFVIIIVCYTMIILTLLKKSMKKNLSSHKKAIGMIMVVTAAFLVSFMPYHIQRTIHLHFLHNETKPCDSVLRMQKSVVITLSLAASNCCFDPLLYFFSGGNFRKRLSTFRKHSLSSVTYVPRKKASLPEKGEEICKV
Sequence of Endothelin ETA (P25101 21-427): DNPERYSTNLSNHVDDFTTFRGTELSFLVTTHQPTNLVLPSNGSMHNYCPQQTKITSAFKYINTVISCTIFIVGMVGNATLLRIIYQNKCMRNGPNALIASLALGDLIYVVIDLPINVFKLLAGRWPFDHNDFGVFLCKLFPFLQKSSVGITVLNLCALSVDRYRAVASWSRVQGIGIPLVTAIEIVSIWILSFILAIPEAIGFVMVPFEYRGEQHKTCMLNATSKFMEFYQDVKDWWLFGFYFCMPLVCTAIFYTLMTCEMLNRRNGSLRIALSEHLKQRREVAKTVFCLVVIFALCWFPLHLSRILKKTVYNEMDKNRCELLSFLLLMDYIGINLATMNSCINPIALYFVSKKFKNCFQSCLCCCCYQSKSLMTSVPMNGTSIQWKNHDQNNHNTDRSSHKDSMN
Sequence of Opiate σ(OP1) (P41143 whole entry): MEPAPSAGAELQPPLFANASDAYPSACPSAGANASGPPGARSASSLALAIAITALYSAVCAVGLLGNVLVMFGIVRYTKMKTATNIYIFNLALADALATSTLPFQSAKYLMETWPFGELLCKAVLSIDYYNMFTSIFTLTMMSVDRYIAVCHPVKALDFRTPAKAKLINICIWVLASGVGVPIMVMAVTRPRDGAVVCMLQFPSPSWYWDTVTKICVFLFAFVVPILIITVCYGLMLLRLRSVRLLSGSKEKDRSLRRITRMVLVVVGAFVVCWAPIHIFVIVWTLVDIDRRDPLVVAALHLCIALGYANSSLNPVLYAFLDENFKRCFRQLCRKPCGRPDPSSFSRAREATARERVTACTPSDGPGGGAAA
Sequence of Adrenergic β1 (P08588 whole entry): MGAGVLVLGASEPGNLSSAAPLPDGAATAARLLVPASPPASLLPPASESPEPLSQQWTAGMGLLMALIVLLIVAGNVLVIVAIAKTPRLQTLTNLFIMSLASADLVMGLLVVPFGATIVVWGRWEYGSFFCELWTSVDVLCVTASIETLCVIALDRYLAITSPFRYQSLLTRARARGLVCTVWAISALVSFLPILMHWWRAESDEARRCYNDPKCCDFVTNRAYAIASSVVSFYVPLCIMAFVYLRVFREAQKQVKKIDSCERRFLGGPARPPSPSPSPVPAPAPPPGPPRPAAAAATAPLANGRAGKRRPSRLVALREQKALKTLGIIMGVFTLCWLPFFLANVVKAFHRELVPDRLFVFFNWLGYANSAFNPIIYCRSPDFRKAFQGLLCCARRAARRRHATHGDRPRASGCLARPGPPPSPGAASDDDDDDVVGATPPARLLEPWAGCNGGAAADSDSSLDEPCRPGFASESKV
Sequence of Tachykinin NK1 (P25103 whole entry): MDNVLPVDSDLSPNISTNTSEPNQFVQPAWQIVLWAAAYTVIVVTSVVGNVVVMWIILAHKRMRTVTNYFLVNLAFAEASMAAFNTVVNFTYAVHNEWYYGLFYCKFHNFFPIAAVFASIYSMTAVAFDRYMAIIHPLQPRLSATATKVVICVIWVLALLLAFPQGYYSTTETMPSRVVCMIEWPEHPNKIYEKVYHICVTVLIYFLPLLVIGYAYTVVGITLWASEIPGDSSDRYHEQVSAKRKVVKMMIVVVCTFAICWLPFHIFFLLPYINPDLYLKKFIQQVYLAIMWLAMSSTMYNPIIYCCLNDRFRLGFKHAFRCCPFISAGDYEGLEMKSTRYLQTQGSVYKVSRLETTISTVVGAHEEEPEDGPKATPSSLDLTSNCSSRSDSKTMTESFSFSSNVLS
Sequence of Histamine H1 (P35367 whole entry): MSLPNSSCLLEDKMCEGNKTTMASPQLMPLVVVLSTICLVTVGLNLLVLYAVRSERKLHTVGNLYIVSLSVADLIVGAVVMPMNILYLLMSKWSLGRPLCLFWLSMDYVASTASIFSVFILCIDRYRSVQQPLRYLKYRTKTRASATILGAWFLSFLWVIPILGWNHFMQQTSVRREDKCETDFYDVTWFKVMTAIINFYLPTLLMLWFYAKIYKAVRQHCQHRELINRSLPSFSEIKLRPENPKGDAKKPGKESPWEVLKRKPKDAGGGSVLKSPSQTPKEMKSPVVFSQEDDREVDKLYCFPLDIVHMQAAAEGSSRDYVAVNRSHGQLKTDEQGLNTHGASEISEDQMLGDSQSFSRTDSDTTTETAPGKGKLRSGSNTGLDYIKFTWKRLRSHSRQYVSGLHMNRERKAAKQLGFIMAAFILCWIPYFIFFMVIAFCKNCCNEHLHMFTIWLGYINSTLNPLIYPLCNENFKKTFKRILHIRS
Sequence of Muscarinic M1 (P11229 whole entry): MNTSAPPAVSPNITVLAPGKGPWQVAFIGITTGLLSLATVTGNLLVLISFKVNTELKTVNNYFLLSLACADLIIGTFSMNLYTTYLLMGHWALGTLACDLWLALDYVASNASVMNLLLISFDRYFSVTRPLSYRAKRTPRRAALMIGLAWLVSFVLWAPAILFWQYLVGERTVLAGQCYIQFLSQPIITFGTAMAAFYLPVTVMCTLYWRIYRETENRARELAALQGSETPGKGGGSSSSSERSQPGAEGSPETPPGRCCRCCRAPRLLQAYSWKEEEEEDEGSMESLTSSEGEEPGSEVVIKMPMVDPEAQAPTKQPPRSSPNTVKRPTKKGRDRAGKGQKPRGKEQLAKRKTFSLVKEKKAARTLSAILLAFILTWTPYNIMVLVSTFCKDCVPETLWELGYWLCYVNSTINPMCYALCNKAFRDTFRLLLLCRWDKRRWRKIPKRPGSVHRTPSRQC
Sequence of Bradykinin B1 (P46663 whole entry): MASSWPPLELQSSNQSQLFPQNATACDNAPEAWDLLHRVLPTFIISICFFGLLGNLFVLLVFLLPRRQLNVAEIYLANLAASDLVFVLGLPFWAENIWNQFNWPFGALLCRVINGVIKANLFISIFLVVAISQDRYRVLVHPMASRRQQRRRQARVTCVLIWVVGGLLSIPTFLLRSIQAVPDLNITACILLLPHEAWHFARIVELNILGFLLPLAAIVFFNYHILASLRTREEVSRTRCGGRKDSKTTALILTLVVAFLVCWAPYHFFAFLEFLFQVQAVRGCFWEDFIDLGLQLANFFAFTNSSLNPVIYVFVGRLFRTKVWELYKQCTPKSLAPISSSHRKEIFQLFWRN
Sequence of Neuropeptide Y1 (P25929 whole entry): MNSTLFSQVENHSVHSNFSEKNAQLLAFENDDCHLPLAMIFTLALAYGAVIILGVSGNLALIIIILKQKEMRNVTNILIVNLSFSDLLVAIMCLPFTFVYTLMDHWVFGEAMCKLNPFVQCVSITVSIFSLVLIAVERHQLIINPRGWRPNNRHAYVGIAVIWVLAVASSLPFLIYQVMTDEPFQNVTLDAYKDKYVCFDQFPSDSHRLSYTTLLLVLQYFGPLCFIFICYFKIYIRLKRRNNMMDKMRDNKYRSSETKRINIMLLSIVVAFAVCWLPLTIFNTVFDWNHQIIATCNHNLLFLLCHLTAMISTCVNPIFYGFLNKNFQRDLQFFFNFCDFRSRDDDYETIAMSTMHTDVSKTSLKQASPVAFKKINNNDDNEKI
Sequence of Adenosine A1 (P30542 whole entry): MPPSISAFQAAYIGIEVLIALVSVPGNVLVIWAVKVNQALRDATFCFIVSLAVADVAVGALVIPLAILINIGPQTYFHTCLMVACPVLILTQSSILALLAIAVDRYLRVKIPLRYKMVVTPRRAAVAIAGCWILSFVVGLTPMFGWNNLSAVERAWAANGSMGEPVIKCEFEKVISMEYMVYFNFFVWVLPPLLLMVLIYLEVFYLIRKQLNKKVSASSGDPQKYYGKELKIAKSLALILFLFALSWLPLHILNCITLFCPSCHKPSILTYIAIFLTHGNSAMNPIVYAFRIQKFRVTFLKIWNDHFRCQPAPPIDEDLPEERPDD

CC(=O)c1ccc2c(c1)C1C=CCC1C(c1cc3c(cc1Br)OCO3)N2 (centres unmarked) [G-1, 1-[4-(6-bromobenzo[1,3]dioxol-5-yl)-3a,4,5,9b-tetrahydro-3H-cyclopenta[c]quinolin-8-yl]-ethanone]
> 10 µM: all assays above
